Data from patent US6369049B1, “Treatment of mastitis” (Eli Lilly and Company, priority 1998, dated 2002).
Marks after values point to notes of the source that are not given here.

Tests used:
[1] = system: Staphylococcus epidermidis 174B; assay: MIC vs. Staphylococcus epidermidis 174B; format: cell-based; design: unit not given beside the values; conditions: Table 2a
Text: (§1) Tables 2 and 2a summarize the minimal inhibitory concentrations (MIC's) at which illustrative formula I compounds and cephalothin inhibit certain microorganisms that are associated with mastitis, such as Staphylococcus aureus 10092 (Newbould strain).

[2] = system: Pasteurella haemolytica 129R (bovine); assay: MIC vs. Pasteurella haemolytica 129R (bovine); format: cell-based; conditions: Incubated at 37° C. overnight
Text: (§2) The formula I compounds are also active against certain Gram-negative species. Tables 3 and 3a show the MIC's of Formula I compounds against certain Gram-negative species.

[3] = system: Streptococcus uberis 150 L; assay: MIC vs. Streptococcus uberis 150 L; format: cell-based; design: unit not given beside the values; conditions: Incubated at 37° C. overnight
Text: as §1

[4] = system: Streptococcus agalactiae 150G; assay: MIC vs. Streptococcus agalactiae 150G; format: cell-based; design: unit not given beside the values; conditions: Table 2a
Text: as §1

S. aureus 174 C = assay: MIC vs. S. aureus 174 C; format: cell-based, Staphylococcus aureus; design: unit not given beside the values; conditions: Incubated at 37° C. overnight
Text: as §1

[5] = system: Pasteurella multocida 108E (bovine); assay: MIC vs. Pasteurella multocida 108E (bovine); format: cell-based; conditions: Incubated at 37° C. overnight
Text: as §2

[6] = system: Pasteurella multocida ATCC 12945; assay: MIC vs. Pasteurella multocida ATCC 12945; format: cell-based; conditions: Incubated at 37° C. overnight
Text: as §2

[7] = system: Streptococcus uberis 166 L; assay: MIC vs. Streptococcus uberis 166 L; format: cell-based; design: unit not given beside the values; conditions: Incubated at 37° C. overnight
Text: as §1

[8] = system: Staphylococcus aureus 170C; assay: MIC vs. Staphylococcus aureus 170C; format: cell-based; design: unit not given beside the values; conditions: Table 2a
Text: as §1

Escherichia coli = assay: MIC vs. Escherichia coli; format: cell-based; design: unit not given beside the values; conditions: Incubated at 37° C. overnight
Text: as §2

[9] = system: Staphylococcus aureus 168H; assay: MIC vs. Staphylococcus aureus 168H; format: cell-based; design: unit not given beside the values; conditions: Table 2a
Text: as §1

[10] = system: Pasteurella multocida 1051 (swine); assay: MIC vs. Pasteurella multocida 1051 (swine); format: cell-based; conditions: Incubated at 37° C. overnight
Text: as §2

Salmonella typhimurium = assay: MIC vs. Salmonella typhimurium; format: cell-based; conditions: Incubated at 37° C. overnight
Text: as §2

[11] = system: Staphylococcus aureus 10092 (Newbould strain); assay: MIC vs. S. aureus 10092 (Newbould strain); format: cell-based; design: unit not given beside the values; conditions: for MIC vs. Staphylococcus aureus 10,092: Table 2a; for MIC vs. S. aureus 10092: Table 2, incubated at 37° C. overnight
Text: as §1

[12] = system: Pasteurella multocida 10,102 (bovine); assay: MIC vs. Pasteurella multocida 10,102 (bovine); format: cell-based; conditions: Incubated at 37° C. overnight
Text: as §2

[13] = system: Pasteurella haemolytica 128K (bovine); assay: MIC vs. Pasteurella haemolytica 128K (bovine); format: cell-based; conditions: for MIC vs. Pasteurella haemolytica 128K (bovine): Table 3, incubated at 37° C. overnight; for MIC against Pasteurella haemolytica Strain 128K: Table 3a, incubated at 37° overnight
Text: as §2

[14] = system: Streptococcus uberis 167I; assay: MIC vs. Streptococcus uberis 167I; format: cell-based; design: unit not given beside the values; conditions: Table 2a
Text: as §1

Streptococcus faecalis = assay: MIC vs. Streptococcus faecalis; format: cell-based; design: unit not given beside the values; conditions: Table 2a
Text: as §1

[15] = system: Streptococcus dysgalactiae; assay: MIC vs. Streptococcus dysgalactiae; format: cell-based; design: unit not given beside the values; conditions: Incubated at 37° C. overnight
Text: as §1

[16] = system: Pasteurella haemolytica 114F (bovine); assay: MIC vs. Pasteurella haemolytica 114F (bovine); format: cell-based; conditions: Incubated at 37° C. overnight
Text: as §2

S. aureus F1C = assay: MIC vs. S. aureus F1C; format: cell-based, Staphylococcus aureus; design: unit not given beside the values; conditions: Incubated at 37° C. overnight
Text: as §1

[17] = system: Streptococcus dysgalactiae 152B; assay: MIC vs. Streptococcus dysgalactiae 152B; format: cell-based; design: unit not given beside the values; conditions: Table 2a
Text: as §1

S. aureus ATCC 29213 = assay: MIC vs. S. aureus ATCC 29213; format: cell-based, Staphylococcus aureus; design: unit not given beside the values; conditions: Incubated at 37° C. overnight
Text: as §1

[18] = system: Streptococcus agalactiae 150 B; assay: MIC vs. Streptococcus agalactiae 150 B; format: cell-based; design: unit not given beside the values; conditions: Incubated at 37° C. overnight
Text: as §1

[19] = system: Staphylococcus aureus 10092 (Newbould); assay: Induced Staphylococcus aureus mastitis model in lactating goats; format: in vivo; conditions: S. aureus 10092 challenge, in peanut oil
Text: Sixteen lactating goats were selected based on the absence of Staphylococcus aureus in pre-challenge milk cultures. Maintenance ration was provided to the animals throughout the study. The goats were milked twice each day using a portable goat milker.
Milk samples were collected during the morning milking. One day prior to challenge, milk culture samples were collected from each half of the test animals to determine if there was a pre-existing infection. Additionally, a sample was collected from each half for Somatic Cell Count (SCC) determination. A milk culture sample and a sample for SCC were collected from each half 24 hours post-challenge and on Days +4 to +6, +8, +11, +13, and +15.
Udder scoring was performed during each milking using the following table:
General health observations and body temperature were recorded once a day following milking during the challenge and treatment periods.
Milk samples were submitted for analysis for SCC using an electronic somatic cell counting system.
Milk culture samples were assayed for bacterial culture by plating 1.0 mL and 0.1 mL of the milk sample directly onto duplicate blood agar plates. Additionally, dilutions […] the milk sample were plated. Plates were incubated overnight at 37° C.
Staphylococcus aureus 10092 (Newbould) was used as the challenge strain. The challenge culture was grown in Tryptic Soy Broth (TSB) from a lyovial stock overnight (16 hours) at 37° C. TSB (100 mL) was inoculated with 1 mL of the overnight culture and incubated at 37° C. with shaking for 4 hours. The culture was centrifuged at 9000 rpm for 10 minutes at 10° C.; supernatant was removed and the pellet was resuspended in phosphate buffered saline (PBS). Optimum O.D. reading at 650 nm was approximately 0.035. A 10-fold dilution series was prepared with saline to determine the CFU/mL, plating 10^−5, 10^−6, and 10^−7 dilutions onto duplicate blood agar plates. The 10^−7 dilution (approximately 10 CFU/mL) was used for the challenge material, yielding a challenge of 50 CFU/half with a 5-mL infusion.
Sixteen goats were used for the trial. During a one day pre-challenge period, milk samples were collected and temperatures were taken during the morning milking. Milk/udder evaluations were documented during the morning and afternoon milkings.
Staphylococcus aureus 10092 was infused into both halves in each of the goats. The goats were challenged following the morning milking and milked in the afternoon on the day of challenge. The challenge inoculum volume was 5 mL/half containing approximately 50 CFU S. aureus.
For the 24 hr post-challenge period milk samples were collected during the morning milking, and milk/udder evaluations made during the morning and afternoon milking.
Treatment was started at 36 hours post-challenge. Milk samples were collected for culture and SCC 24 hours post-challenge, prior to the morning milking, and the treatment period started following the afternoon milking.
Eight halves (4 goats) each were treated for 2 consecutive milkings 12 hours apart, following milking. […]
Following treatment, the goats were milked and observed for 15 days. Milk samples were collected on Days +4 to +6, +8, +11, +13, and +15 to determine if the infection had cleared.
Establishment of mastitis was determined by bacterial culturing, severity of udder scoring, somatic cell count results, and body temperature.
On Days +2 to +6, milk samples were collected for a colorimetric assay to determine whether the antibiotic was still present in the milk.

[20] = approximately 25 mg/5 mL dose per half, 2 consecutive milkings 12 hours apart

SMILES	MIC vs. Staphylococcus epidermidis 174B [1]	MIC vs. Streptococcus uberis 150 L [3]	MIC vs. Streptococcus agalactiae 150G [4]	MIC vs. S. aureus 174 C (S. aureus 174 C)	MIC vs. Streptococcus uberis 166 L [7]	MIC vs. Staphylococcus aureus 170C [8]	MIC vs. Staphylococcus aureus 168H [9]	MIC vs. Staphylococcus aureus 10,092 [11]	MIC against Pasteurella haemolytica Strain 128K [13]	MIC vs. Streptococcus uberis 167I [14]	MIC vs. Streptococcus faecalis (Streptococcus faecalis)	MIC vs. Streptococcus dysgalactiae [15]	MIC vs. S. aureus F1C (S. aureus F1C)	MIC vs. Streptococcus dysgalactiae 152B [17]	MIC vs. S. aureus ATCC 29213 (S. aureus ATCC 29213)	MIC vs. Streptococcus agalactiae 150 B [18]	% Bacteriologic Cures [19, 20]	further results
CC(=O)OCC1=C(C(=O)O)N2C(=O)[C@@H](NC(=O)Cc3cccs3)[C@H]2SC1 [Cephalothin, reference compound]	0.5	0.125	0.5	0.25	0.0625	0.5	0.5	0.5	1	32	16	0.0625-0.125	0.25	0.5	0.25	0.125		MIC vs. Pasteurella haemolytica 129R (bovine) [2]: 1; MIC vs. Pasteurella multocida 108E (bovine) [5]: 0.5; MIC vs. Pasteurella multocida ATCC 12945 [6]: 0.25; MIC vs. Escherichia coli (Escherichia coli): 8; MIC vs. Pasteurella multocida 1051 (swine) [10]: 0.25; MIC vs. Salmonella typhimurium (Salmonella typhimurium): 4; MIC vs. Pasteurella multocida 10,102 (bovine) [12]: 0.5; MIC vs. Pasteurella haemolytica 128K (bovine) [13]: 0.5; MIC vs. Pasteurella haemolytica 114F (bovine) [16]: 1
O=C(COc1c(F)c(F)c(F)c(F)c1F)NC1C(=O)N2C(C(=O)O)=C(Cl)CSC12 (stereo not drawn) [Compound 1]		0.25		0.5	0.25							0.125	0.5		0.5	0.125		MIC vs. Pasteurella haemolytica 129R (bovine) [2]: 4; % Bacteriologic Cures ([19]; dosing was 100 mg/5 mL dose): 75* %; MIC vs. Pasteurella multocida 108E (bovine) [5]: 0.5; MIC vs. Pasteurella multocida ATCC 12945 [6]: 0.125; MIC vs. Escherichia coli (Escherichia coli): >128; MIC vs. Pasteurella multocida 1051 (swine) [10]: 0.5; MIC vs. Salmonella typhimurium (Salmonella typhimurium): >128; MIC vs. S. aureus 10092 [11]: 0.25; MIC vs. Pasteurella multocida 10,102 (bovine) [12]: 0.5; MIC vs. Pasteurella haemolytica 128K (bovine) [13]: 4; MIC vs. Pasteurella haemolytica 114F (bovine) [16]: 4
O=C(Cc1c(F)c(F)c(F)c(F)c1F)NC1C(=O)N2C(C(=O)O)=C(Cl)CSC12 (stereo not drawn) [Compound 4]		0.5		1	0.0156							0.0312	1		1	0.5		MIC vs. S. aureus 10092 [11]: 0.5
O=C(COc1c(F)cc(F)cc1F)NC1C(=O)N2C(C(=O)O)=C(Cl)CSC12 (stereo not drawn) [Compound 5]	1		1			4	2	1	16	16	16			0.5			100%	
O=C(COc1cc(F)cc(F)c1)NC1C(=O)N2C(C(=O)O)=C(Cl)CSC12 (stereo not drawn) [Compound 6]	0.5		0.5			4	2	0.5	4	32	32			0.25			75%	
O=C(COc1c(F)c(F)c(F)c(F)c1F)NC1C(=O)N2C(C(=O)O)=C(Cl)CCC12 (stereo not drawn) [Compound 7]	2		2			1	16	4	32	128	>128			2			13%	
O=C(COc1ccc(OC(F)(F)F)cc1)NC1C(=O)N2C(C(=O)O)=C(Cl)CSC12 (stereo not drawn) [Compound 8]	1		1			<0.125	1	1	32	128	64			0.5			50%	
O=C(CSc1c(F)c(F)c(F)c(F)c1F)NC1C(=O)N2C(C(=O)O)=C(Cl)CSC12 (stereo not drawn) [Compound 9]	0.5		0.5			0.5	0.5	0.5	4	4	8			0.5			63%	
O=C(COc1c(F)c(F)c(C(F)(F)F)c(F)c1F)NC1C(=O)N2C(C(=O)O)=C(Cl)CSC12 (stereo not drawn) [Compound 10]																	57%	
